In US7741020B2, “Methods for detecting Lp-PLA2 activity and inhibition of Lp-PLA2 activity” (Glaxo Group Limited, priority 2004, dated 2010):
“And” between values parts separate entries of the source, which are not always exact repeats. Identical values can stand only once.

Tests used:
[1] = molecular target: T1, Lp-PLA2 (Homo sapiens, UniProt Q13093); test: Auto PAF AH assay (Azwell kit, Olympus Au640 analyzer); assay type: biochemical; details: plasma of individual human subjects
T1 sequence (Q13093 22-441): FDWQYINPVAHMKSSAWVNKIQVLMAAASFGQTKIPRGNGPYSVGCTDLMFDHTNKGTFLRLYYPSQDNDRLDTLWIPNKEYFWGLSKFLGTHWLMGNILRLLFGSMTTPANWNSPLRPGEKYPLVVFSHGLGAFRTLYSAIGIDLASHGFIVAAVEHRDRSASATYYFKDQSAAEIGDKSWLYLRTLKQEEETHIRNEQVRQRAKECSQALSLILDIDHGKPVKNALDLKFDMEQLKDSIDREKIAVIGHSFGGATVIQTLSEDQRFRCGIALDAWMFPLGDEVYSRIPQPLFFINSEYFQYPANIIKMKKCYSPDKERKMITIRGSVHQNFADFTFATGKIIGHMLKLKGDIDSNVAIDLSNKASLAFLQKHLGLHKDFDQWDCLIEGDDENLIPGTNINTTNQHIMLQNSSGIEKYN
Protocol: The Auto PAF AH assay kit, manufactured by Azwell (Osaka, Japan), is commercially available in the United States through Karlan Research Products Corporation (Santa Rosa, Calif.).
Prepare the following reagents: • R1: Use this buffer solution as supplied in Azwell Auto PAF AH assay kit. Store at 4° C. Protect from light. • R2: Prepare the R2 working solution by mixing R2A and R2B (supplied in Azwell Auto PAF AH assay kit) in the proportion of 19:1, Store at 4° C. Protect from light. • 3. […] Briefly centrifuge to spin down fibrin clots/particles in the plasma. • 4. Place Sarstedt tubes containing plasma samples onto sample tubes that fit the instrument. Run plasma samples through the Au640 analyzer. After choosing the PAF AH assay program, the analytical procedure described below is performed automatically: • Test sample (2 μL)+R1 (240 μL), 37° C., 5 minutes [0-5 minutes] • Add R2 (80 μL), 37° C., 5 minutes [5-10 minutes] • Measure the absorbance at 410 nm and 480 nm [6-8 minutes] • Calculate PAF AH activity (IU/L) • 5.

[2] = molecular target: T1, Lp-PLA2; test: High throughput radiometric assay for Lp-PLA2 activity (3H-PAF); assay type: biochemical; details: plasma of individual human subjects
Protocol: (cat #6005162) Reagents • HEPES (4-(2-hydroxyethyl)-1-piperazineethane sulfonic acid) Sigma Chemical Co., St. Louis Mo. […] (Cat # E7889; 0.5 M) • ^3H-Platelet Activating Factor, 1-O-Hexadecyl-[acetyl-^3H(N)], (^3H-PAF)-NEN Life Science Products, Roxbury, Mass. (Cat # NET-910, supplied as an ethanol solution, typically 0.1 mCi/mL; 250 uCi) • C16-PAF, (1-hexadecyl-2-acetyl-sn-glycero-3-phosphocholine): Avanti Polar Lipids, Alabaster, Ala. […] (Cat # T9159) Assay Buffer • 100 mM Hepes, pH 7.4 • 150 mM NaCl • 5 mM EDTA • Store it at room temperature Procedures • 1. Prepare a ^3H-PAF working solution (for 100 reactions): • a) Aliquot 480 μl ^3H-PAF (10 μM=0.1 mCi/ml at 10.0 Ci/mmol) and 125.3 μl of [C16]PAF (5.0 mg/ml; MW: 524) to a tube; • b) Mix and air dry in the hood; • c) Resuspend the dried pellets in 12.0 ml of assay buffer giving working solutions of 100 μM PAF (i.e. ^3H-PAF at 0.4 μM and cold [C16]PAF at 99.6 μM); • 2. Aliquot 5 μL of assay buffer (for Total counts and Blanks; n=8) or plasma samples in duplicates into a 96-well plate; • 3. Equilibrate the plate to 21° C.; • 4. Add 100 μL of the ^3H-PAF solution to each well, mix and incubate the plate at 21° C. for 5 minutes; • 5. […]; • 6. Add 25 μL of ice-cold TCA solution (56%) to each well, mix and incubate the plate in a refrigerator for 15 minutes; • 7. Centrifuge the plate at 6,000 g for 15 minutes at 4° C.; • 8. […] Add 10 μL of ^3H-PAF working solution to 6 Total Counts wells; • 10. […] Cover the plate with a plate tape and vortex mix at max speed for 10 minutes; • 12. […] Count with a TopCount scintillation counter for 2 minutes each; and • 14.

COCCN1CCC(N(Cc2ccc(-c3ccc(C(F)(F)F)cc3)cc2)C(=O)Cn2c(SCc3cccc(F)c3F)cc(=O)c3ccccc32)CC1 [Formula I]
% Inhibition Auto PAF AH ([1]; 50 mg, 12 hr after dosing): 14.26% and 18.76% and −8.39% | Lp-PLA2 Activity Auto PAF AH ([1]; 50 mg, 12 hr after dosing): 261.50 nmol/min/mL and 409.50 nmol/min/mL and 336.00 nmol/min/mL and 307.00 nmol/min/mL | % Inhibition Auto PAF AH ([1]; 120 mg, 0.5 hr after dosing): 15.42% and 8.74% and 9.58% and 6.66% | % Inhibition Auto PAF AH ([1]; 120 mg, 1 hr after dosing): 11.34% and 7.73% | % Inhibition Auto PAF AH ([1]; 120 mg, 2 hr after dosing): 18.04% and 21.33% and 8.63% and 18.61% and 21.05% | % Inhibition Auto PAF AH ([1]; 120 mg, 3 hr after dosing): 12.42% and 16.24% and 5.90% and 14.65% | % Inhibition Auto PAF AH ([1]; 120 mg, 5 hr after dosing): −1.63% and 5.62% | Lp-PLA2 Activity Auto PAF AH ([1]; 120 mg, 5 hr after dosing): 353.50 nmol/min/mL and 748.00 nmol/min/mL and 416.00 nmol/min/mL and 428.50 nmol/min/mL and 377.00 nmol/min/mL | % Inhibition Auto PAF AH ([1]; 120 mg, 6 hr after dosing): 13.73% and 2.99% and 6.47% | Lp-PLA2 Activity Auto PAF AH ([1]; 120 mg, 6 hr after dosing): 330.00 nmol/min/mL and 714.00 nmol/min/mL and 412.00 nmol/min/mL and 393.00 nmol/min/mL and 366.00 nmol/min/mL | % Inhibition Auto PAF AH ([1]; 120 mg, 9 hr after dosing): 11.63% | % Inhibition Auto PAF AH ([1]; 120 mg, 12 hr after dosing): 7.06% and −3.52% | % Inhibition Radiometric ([2]; 50 mg, 0.5 hr after dosing): 22.34% and 17.17% and 25.59% | Lp-PLA2 Activity Radiometric ([2]; 50 mg, 0.5 hr after dosing): 65.24 nmol/min/mL and 50.18 nmol/min/mL and 78.40 nmol/min/mL and 22.46 nmol/min/mL and 104.52 nmol/min/mL | % Inhibition Radiometric ([2]; 50 mg, 1 hr after dosing): 77.76% and 60.11% | Lp-PLA2 Activity Radiometric ([2]; 50 mg, 1 hr after dosing): 15.85 nmol/min/mL and 26.80 nmol/min/mL and 18.68 nmol/min/mL and 10.60 nmol/min/mL and 30.87 nmol/min/mL | Lp-PLA2 Activity Radiometric ([2]; 50 mg, 2 hr after dosing): 10.00 nmol/min/mL | Lp-PLA2 Activity Radiometric ([2]; 50 mg, 4 hr after dosing): 10.02 nmol/min/mL and 20.76 nmol/min/mL and 14.37 nmol/min/mL and 11.47 nmol/min/mL | % Inhibition Radiometric ([2]; 50 mg, 5 hr after dosing): 86.07% | % Inhibition Radiometric ([2]; 120 mg, 0.5 hr after dosing): 64.75% and 81.63% and 44.97% and 33.96% | Lp-PLA2 Activity Radiometric ([2]; 120 mg, 0.5 hr after dosing): 35.83 nmol/min/mL and 25.97 nmol/min/mL and 16.07 nmol/min/mL and 39.68 nmol/min/mL and 58.09 nmol/min/mL | % Inhibition Radiometric ([2]; 120 mg, 1 hr after dosing): 88.66% | Lp-PLA2 Activity Radiometric ([2]; 120 mg, 1 hr after dosing): 10.00 nmol/min/mL | Lp-PLA2 Activity Radiometric ([2]; 120 mg, 2 hr after dosing): 10.00 nmol/min/mL | Lp-PLA2 Activity Radiometric ([2]; 120 mg, 3 hr after dosing): 14.09 nmol/min/mL and 12.80 nmol/min/mL and 10.00 nmol/min/mL (2×) and 21.08 nmol/min/mL | % Inhibition Radiometric ([2]; 120 mg, 4 hr after dosing): 90.91% and 72.94% | Lp-PLA2 Activity Radiometric ([2]; 120 mg, 4 hr after dosing): 14.00 nmol/min/mL and 10.00 nmol/min/mL (2×) | % Inhibition Radiometric ([2]; 120 mg, 5 hr after dosing): 91.73% | Lp-PLA2 Activity Radiometric ([2]; 120 mg, 5 hr after dosing): 14.05 nmol/min/mL and 11.69 nmol/min/mL and 10.00 nmol/min/mL (2×) and 20.24 nmol/min/mL | Lp-PLA2 Activity Radiometric ([2]; 120 mg, 6 hr after dosing): 10.00 nmol/min/mL | Lp-PLA2 Activity Radiometric ([2]; 120 mg, 9 hr after dosing): 21.11 nmol/min/mL and 18.51 nmol/min/mL and 14.41 nmol/min/mL and 32.48 nmol/min/mL and 11.21 nmol/min/mL | Lp-PLA2 Activity Radiometric ([2]; 120 mg, 12 hr after dosing): 24.22 nmol/min/mL and 21.27 nmol/min/mL and 16.97 nmol/min/mL and 34.26 nmol/min/mL and 15.69 nmol/min/mL
